The record followed here is BindingDB's records for doi:10.1158/1535-7163.MCT-05-0442 (Celera Genomics, 2006).

Some results are limits rather than exact numbers.

Histone deacetylase 1, sequence (Q13547 whole entry): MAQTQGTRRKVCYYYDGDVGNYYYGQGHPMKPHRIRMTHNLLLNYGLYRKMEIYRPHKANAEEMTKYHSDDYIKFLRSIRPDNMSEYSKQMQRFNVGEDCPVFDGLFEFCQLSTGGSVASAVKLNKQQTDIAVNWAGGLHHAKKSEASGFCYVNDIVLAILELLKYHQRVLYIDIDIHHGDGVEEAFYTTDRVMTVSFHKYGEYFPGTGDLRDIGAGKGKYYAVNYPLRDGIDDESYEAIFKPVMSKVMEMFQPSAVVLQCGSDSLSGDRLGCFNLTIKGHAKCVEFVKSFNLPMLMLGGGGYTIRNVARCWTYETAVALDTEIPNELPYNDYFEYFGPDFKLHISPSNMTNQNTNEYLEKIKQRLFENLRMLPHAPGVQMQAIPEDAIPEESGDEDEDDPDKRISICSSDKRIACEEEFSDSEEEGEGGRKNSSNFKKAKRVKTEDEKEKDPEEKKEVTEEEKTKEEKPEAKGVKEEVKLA

The experiment addresses Histone deacetylase 1 (Homo sapiens, UniProt Q13547). Briefly: HDAC Inhibition Assay. The conditions noted are these: pH 7.4; 22 °C. How it is done:
HDAC activity was measured using a continuous trypsin-coupled assay. For inhibitor characterization, measurements were done using 96-well assay plates. Enzyme was mixed with inhibitor at various concentrations and allowed to incubate for 15 minutes. […] Reactions were monitored in a fluorescence plate reader. […] The increase in fluorescence with time was used as the measure of the reaction rate. Inhibition constants Ki(app) were obtained using the program BatchKi.
`CN(C)Cc1c(C(=O)NCCOc2ccc(C(=O)O)cc2)oc2ccccc12` [4-[2-({3-[(dimethylamino)methyl]-1-benzofuran-2-yl}formamido)ethoxy]benzoic acid] displayed an inhibition constant Ki of more than 50000 nM.

Consider `O=C(NO)c1ccc(OCCNC(=O)c2ccccc2)cc1` [N-hydroxy-4-[2-(phenylformamido)ethoxy]benzamide], for which the Ki is 43 nM.

In turn, `O=C(NO)c1ccc(OCCNC(=O)c2cc3ccccc3o2)cc1` [N-{2-[4-(hydroxycarbamoyl)phenoxy]ethyl}-1-benzofuran-2-carboxamide] showed a Ki of 4 nM.

In turn, `O=C(NO)c1ccc(OCCNC(=O)c2ccc3ccccc3c2)cc1` [N-{2-[4-(hydroxycarbamoyl)phenoxy]ethyl}naphthalene-2-carboxamide] came in with an inhibition constant (Ki) of 6 nM. This Ki is about 1.5-fold higher than that of the molecule before.

For orientation: Ki means a dissociation constant, usually derived from enzyme kinetics or from competition with a known ligand.
